Results from patent publication US20250082674A1, “METHODS OF TREATING COPPER METABOLISM-ASSOCIATED DISEASES OR DISORDERS” (priority 2021, published 2025).

Tests used:
[1] = in vivo
[2] = Study 301: adverse events in participants who switched from SoC to BC-TTM in the Extension Period; conditions: SoC Weeks 0-48 (N = 70), BC-TTM Weeks 49-96 (N = 61)
[3] = in vivo; remark: listed apart in the source
Description: These participants had all intake (food and drink) and output (urine and feces) collected from Day-4 through Day-1 (baseline), from Day 1 through Day 8, and Day 25 through Day 39.

[4] = tested on: ^64Cu hepatic uptake, biliary copper excretion; conditions: 4 WD patients, FIG. 30
Description: 15 minutes after intravenous administration of ^64Cu, a dynamic PET-MR scan was performed, followed by additional scans at 1, 2, 6, 20, 48, 54, and 68 hours. Venous blood samples were collected for quantitation of radioactivity at multiple time points.
The post-treatment ^64Cu PET-MR study was initiated on the 7th day, with serial PET-MR imaging conducted 1, 2, 6, 20, 48, 54, and 68 hours after intravenous administration of ^64Cu.
The study also assessed the kinetics of ^64Cu in the blood and its distribution among organs of interest. The SUV allows for semiquantitative assessment of copper in a desired volume of interest by measuring the ratio of observed copper activity to the total dose administered.

Bis-choline tetrathiomolybdate [BC-TTM]
AEs in SOC Investigations [1]: 29.5% | AEs in SOC Metabolism and nutrition disorders [1]: 11.5% | AEs in SOC Skin and subcutaneous tissue disorders [1]: 13.1% | Affective disorder, E events [1]: 0 | Affective disorder, N participants [1]: 0 | Alanine aminotransferase increased, E events [1]: 14 | Alanine aminotransferase increased, N participants [1]: 12 | Alanine aminotransferase increased, participants (%) [1]: 19.7% | Anxiety, E events [1]: 1 | Anxiety, N participants [1]: 1 | Anxiety, participants (%) [1]: 1.6% | Aspartate aminotransferase increased, E events [1]: 4 | Aspartate aminotransferase increased, N participants [1]: 4 | Aspartate aminotransferase increased, participants (%) [1]: 6.6% | Attention deficit hyperactivity disorder, E events [1]: 0 | Attention deficit hyperactivity disorder, N participants [1]: 0 | Blood and lymphatic system disorders, E events [1]: 18 | Blood and lymphatic system disorders, N participants [1]: 7 | Blood and lymphatic system disorders, participants (%) [1]: 11.5% | Cardiac disorders, E events [1]: 5 | Cardiac disorders, N participants [1]: 3 | Cardiac disorders, participants (%) [1]: 4.9% | Congenital, familial, and genetic disorders, E events [1]: 0 | Congenital, familial, and genetic disorders, N participants [1]: 0 | Dyslipidemia, E events [1]: 1 | Dyslipidemia, N participants [1]: 1 | Dyslipidemia, participants (%) [1]: 1.6% | Ear and labyrinth disorders, E events [1]: 1 | Ear and labyrinth disorders, N participants [1]: 1 | Ear and labyrinth disorders, participants (%) [1]: 1.6% | Eczema, E events [1]: 1 | Eczema, N participants [1]: 1 | Eczema, participants (%) [1]: 1.6% | Eye disorders, E events [1]: 0 | Eye disorders, N participants [1]: 0 | Fatigue, E events [1]: 5 | Fatigue, N participants [1]: 5 | Fatigue, participants (%) [1]: 8.2% | Gamma-glutamyltransferase increased, E events [1]: 3 | Gamma-glutamyltransferase increased, N participants [1]: 3 | Gamma-glutamyltransferase increased, participants (%) [1]: 4.9% | Gastrointestinal disorders, E events [1]: 30 | Gastrointestinal disorders, N participants [1]: 18 | Gastrointestinal disorders, participants (%) [1]: 29.5% | Hand dermatitis, E events [1]: 1 | Hand dermatitis, N participants [1]: 1 | Hand dermatitis, participants (%) [1]: 1.6% | Hepatic enzyme increased, E events [1]: 3 | Hepatic enzyme increased, N participants [1]: 3 | Hepatic enzyme increased, participants (%) [1]: 4.9% | Hepatobiliary disorders, E events [1]: 3 | Hepatobiliary disorders, N participants [1]: 2 | Hepatobiliary disorders, participants (%) [1]: 3.3% | Hyperlipidaemia, E events [1]: 1 | Hyperlipidaemia, N participants [1]: 1 | Hyperlipidaemia, participants (%) [1]: 1.6% | Hypertriglyceridaemia, E events [1]: 3 | Hypertriglyceridaemia, N participants [1]: 1 | Hypertriglyceridaemia, participants (%) [1]: 1.6% | Infections and infestations, E events [1]: 23 | Infections and infestations, N participants [1]: 17 | Infections and infestations, participants (%) [1]: 27.9% | Injury, poisoning and procedural complications, E events [1]: 13 | Injury, poisoning and procedural complications, N participants [1]: 7 | Injury, poisoning and procedural complications, participants (%) [1]: 11.5% | Investigations, E events [1]: 29 | Investigations, N participants [1]: 18 | Investigations, participants (%) [1]: 29.5% | Metabolism and nutrition disorders, E events [1]: 10 | Metabolism and nutrition disorders, N participants [1]: 7 | Metabolism and nutrition disorders, participants (%) [1]: 11.5% | Neoplasms benign, malignant, and unspecified (incl cysts and polyps), E events [1]: 1 | Neoplasms benign, malignant, and unspecified (incl cysts and polyps), N participants [1]: 1 | Neoplasms benign, malignant, and unspecified (incl cysts and polyps), participants (%) [1]: 1.6% | Nervous system disorders, E events [1]: 12 | Nervous system disorders, N participants [1]: 11 | Nervous system disorders, participants (%) [1]: 18.0% | Neutrophil count decreased, E events [1]: 1 | Neutrophil count decreased, N participants [1]: 1 | Neutrophil count decreased, participants (%) [1]: 1.6% | Post-traumatic stress disorder, E events [1]: 1 | Post-traumatic stress disorder, N participants [1]: 1 | Post-traumatic stress disorder, participants (%) [1]: 1.6% | Product issues, E events [1]: 0 | Product issues, N participants [1]: 0 | Pruritus, E events [1]: 2 | Pruritus, N participants [1]: 2 | Pruritus, participants (%) [1]: 3.3% | Psychiatric disorders, E events [1]: 3 | Psychiatric disorders, N participants [1]: 3 | Psychiatric disorders, participants (%) [1]: 4.9% | Pyrexia, E events [1]: 1 | Pyrexia, N participants [1]: 1 | Pyrexia, participants (%) [1]: 1.6% | Rash pruritic, E events [1]: 1 | Rash pruritic, N participants [1]: 1 | Rash pruritic, participants (%) [1]: 1.6% | Rash, E events [1]: 5 | Rash, N participants [1]: 1 | Rash, participants (%) [1]: 1.6% | Renal and urinary disorders, E events [1]: 2 | Renal and urinary disorders, N participants [1]: 1 | Renal and urinary disorders, participants (%) [1]: 1.6% | Reproductive system and breast disorders, E events [1]: 0 | Reproductive system and breast disorders, N participants [1]: 0 | Respiratory, thoracic, and mediastinal disorders, E events [1]: 4 | Respiratory, thoracic, and mediastinal disorders, N participants [1]: 3 | Respiratory, thoracic, and mediastinal disorders, participants (%) [1]: 4.9% | Restlessness, E events [1]: 0 | Restlessness, N participants [1]: 0 | Skin and subcutaneous tissue disorders, E events [1]: 15 | Skin and subcutaneous tissue disorders, N participants [1]: 8 | Skin and subcutaneous tissue disorders, participants (%) [1]: 13.1% | Sleep disorder, E events [1]: 1 | Sleep disorder, N participants [1]: 1 | Sleep disorder, participants (%) [1]: 1.6% | Vascular disorders, E events [1]: 5 | Vascular disorders, N participants [1]: 3 | Vascular disorders, participants (%) [1]: 4.9% | imbalances in neurologic and psychiatric events after switch from SoC to BC-TTM [1]: not observed | Musculoskeletal and connective tissue disorders, E events [2]: 7 | Musculoskeletal and connective tissue disorders, N participants [2]: 7 | Musculoskeletal and connective tissue disorders, participants (%) [2]: 11.5% | participants in whom dose escalation was not carried out due to elevation of liver enzymes [3]: 2 participants | mean SUV for the other organs after treatment [4]: did not change
